assay: Solubility Evaluation 1: solubility of host compounds in toluene; type: physicochemical; conditions: host compounds
Procedure: Solubility Evaluation 1 was conducted by the following method.
(§1) A hundred mg of each compound was placed in a sample pot and the toluene as the solvent was added until the compound was dissolved. The solubility in the toluene was obtained from an amount of the added toluene.

Compound `c1ccc(-c2ccccc2-c2ccc3c(-c4ccccc4)c4ccccc4c(-c4ccccc4)c3c2)cc1` [Compound H10] has a solubility in toluene of 5 wt %.

In the case of `c1ccc(-c2ccc(-c3ccccc3-c3c4ccccc4c(-c4c5ccccc5c(-c5ccccc5-c5ccc(-c6ccccc6)cc5)c5ccccc45)c4ccccc34)cc2)cc1` [Compound H9], the “solubility in the toluene (in words)” value is reported as “solubility capable of performing the thickness control of the films”.

same assay, conditions: in toluene; 100 mg compound, toluene added until dissolved

First: c1cc(-c2ccc3ccccc3c2)cc(-c2c3ccccc3c(-c3ccc4cc(-c5ccc6ccccc6c5)ccc4c3)c3ccccc23)c1 [Compound H7]
Second: c1ccc2cc(-c3ccc4cc(-c5c6ccccc6c(-c6ccc(-c7cccc8ccccc78)cc6)c6ccccc56)ccc4c3)ccc2c1 [Compound H3]
The “Solubility (%)” value of the first is lower: 0.25% for the first, 2.0% for the second.

Going from `c1ccc(-c2ccc(-c3c4ccccc4c(-c4ccccc4)c4ccccc34)cc2)cc1` [Compound H8] to `c1ccc2cc(-c3c4ccccc4c(-c4ccc(-c5cccc6ccccc56)cc4)c4ccccc34)ccc2c1` [Compound H4], the “Solubility (%)” value rises from 0.2% to 5.0%.

`c1cc(-c2ccc(-c3cccc4ccccc34)cc2)cc(-c2c3ccccc3c(-c3ccc(-c4cccc5ccccc45)cc3)c3ccccc23)c1` [Compound H2] and `c1ccc2cc(-c3ccc(-c4c5ccccc5c(-c5ccc(-c6cccc7ccccc67)cc5)c5ccccc45)cc3)ccc2c1` [Compound H1] are the same in “Solubility (%)” value: 2.0% for the first, 2.0% for the second.

Going from `c1ccc(-c2ccc(-c3ccccc3-c3c4ccccc4c(-c4c5ccccc5c(-c5ccccc5-c5ccc(-c6ccccc6)cc5)c5ccccc45)c4ccccc34)cc2)cc1` [Compound H9] to `c1ccc(-c2cc(-c3ccc4ccccc4c3)cc(-c3c4ccccc4c(-c4ccc5ccccc5c4)c4ccccc34)c2)cc1` [Compound H5], the “Solubility (%)” value rises from 1.4% to 5.0%.

In the case of `c1cc(-c2ccc3ccccc3c2)cc(-c2c3ccccc3c(-c3cccc4ccccc34)c3ccccc23)c1` [Compound H6], the “Solubility (%)” value is reported as 0.25%.

assay: Solubility Evaluation 2: solubility of dopant compounds in toluene; type: physicochemical; conditions: Table 2
Procedure: as §1

`CC(C)(C)c1ccc2c(N(c3ccc4ccccc4c3)c3ccc4ccccc4c3)c3cc(C(C)(C)C)ccc3c(N(c3ccc4ccccc4c3)c3ccc4ccccc4c3)c2c1` [EM148] and `CC(C)c1ccc2c(N(c3ccc(-c4ccccc4)cc3)c3ccc4ccccc4c3)c3cc(CC4CCCCC4)ccc3c(N(c3ccc(-c4ccccc4)cc3)c3ccc4ccccc4c3)c2c1` [EM136] are the same in “Solubility (%)” value: 0.5% for the first, 0.5% for the second.

Compared with `Cc1ccc(N(c2ccc(C)c(C)c2)c2c3ccc(C(C)(C)C)cc3c(N(c3ccc(C)c(C)c3)c3ccc(C)c(C)c3)c3ccc(C(C)(C)C)cc23)cc1C` [EM145], `Cc1cccc(N(c2ccc(C)c(C)c2)c2c3ccc(C(C)(C)C)cc3c(N(c3cccc(C)c3)c3ccc(C)c(C)c3)c3ccc(C(C)(C)C)cc23)c1` [EM147] is higher in “Solubility (%)” value: 0.5% for the first, 1% for the second.

`Cc1ccc(N(c2ccc(C(C)(C)C)cc2)c2c3ccccc3c(N(c3ccc(C)cc3)c3ccc(C(C)(C)C)cc3)c3cc(C(C)C)ccc23)cc1` [EM140] and `Cc1ccc(N(c2ccc(C(C)C)cc2)c2c3ccccc3c(N(c3ccc(C)cc3)c3ccc(C(C)C)cc3)c3cc(C(C)(C)C)ccc23)cc1` [EM141] are the same in “Solubility (%)” value: 0.5% for the first, 0.5% for the second.

`Cc1ccc(N(c2ccc(C(C)C)cc2)c2c3ccc(C(C)(C)C)cc3c(N(c3ccc(C)cc3)c3ccc(C(C)C)cc3)c3ccc(C(C)(C)C)cc23)cc1` [EM144] and `Cc1ccc(N(c2ccc(C)cc2)c2c3ccc(C(C)(C)C)cc3c(N(c3ccc(C)cc3)c3ccc(C)cc3)c3ccc(C(C)(C)C)cc23)cc1` [EM143] are the same in “Solubility (%)” value: 0.5% for the first, 0.5% for the second.

Going from `CC(C)c1ccc(N(c2ccccc2)c2c3ccc(C(C)(C)C)cc3c(N(c3ccccc3)c3ccc(C(C)C)cc3)c3ccc(C(C)(C)C)cc23)cc1` [EM142] to `CCC(C)c1ccc(N(c2ccccc2)c2c3ccc(C(C)C)cc3c(N(c3ccccc3)c3ccc(C(C)CC)cc3)c3ccc(CC(C)(C)C)cc23)cc1` (centres unmarked) [EM137], the “Solubility (%)” value rises from 0.5% to 1%.

`Cc1cccc(N(c2cccc(C)c2)c2c3ccc(C(C)C)cc3c(N(c3cccc(C)c3)c3cccc(C)c3)c3ccc(C(C)C)cc23)c1` [EM149] and `Cc1cccc(N(c2cccc(C(C)C)c2)c2c3ccc(C(C)(C)C)cc3c(N(c3cccc(C)c3)c3cccc(C(C)C)c3)c3ccc(C(C)(C)C)cc23)c1` [EM146] are the same in “Solubility (%)” value: 0.5% for the first, 0.5% for the second.

`Cc1ccc(N(c2ccc(C(C)C)cc2)c2c3ccccc3c(N(c3ccc(C)cc3)c3ccc(C(C)C)cc3)c3cc(C45CC6CC(CC(C6)C4)C5)ccc23)cc1` [EM176] and `CC(C)c1ccc(N(c2ccccc2)c2c3ccccc3c(N(c3ccccc3)c3ccc(C(C)C)cc3)c3cc(C45CC6CC(CC(C6)C4)C5)ccc23)cc1` [EM177] are the same in “Solubility (%)” value: 0.5% for the first, 0.5% for the second.

`Cc1ccc(N(c2ccc(C)cc2)c2c3ccccc3c(N(c3ccc(C)cc3)c3ccc(C)cc3)c3cc(C(C)(C)C)ccc23)cc1` [EM139] and `Cc1ccc(N(c2ccc(C)cc2)c2c3ccc(C4CCCCC4)cc3c(N(c3ccc(C)cc3)c3ccc(C)cc3)c3ccc(C(C)C)cc23)cc1` [EM138] are the same in “Solubility (%)” value: 0.5% for the first, 0.5% for the second.

`c1ccc(N(c2ccc3ccccc3c2)c2c3ccccc3c(N(c3ccccc3)c3ccc4ccccc4c3)c3cc(C4CCCCC4)ccc23)cc1` [EM174] and `Cc1cccc(N(c2cccc(C)c2)c2c3ccccc3c(N(c3cccc(C)c3)c3cccc(C)c3)c3cc(C4CC5CCC4C5)ccc23)c1` (centres unmarked) [EM175] are the same in “Solubility (%)” value: 0.5% for the first, 0.5% for the second.

same assay, conditions: Table 3

Compared with `c1ccc(-c2cc(N(c3ccc(C4CCCCC4)cc3)c3cc4ccccc4c4ccccc34)c3cc(-c4ccccc4)cc(N(c4ccc(C5CCCCC5)cc4)c4cc5ccccc5c5ccccc45)c3c2)cc1` [EM192], `CC(C)c1ccc(N(c2cccc(-c3ccccc3)c2)c2c3ccccc3c(-c3c4ccccc4c(N(c4ccc(C(C)C)cc4)c4cccc(-c5ccccc5)c4)c4ccccc34)c3ccccc23)cc1` [EM207] is lower in “Solubility (%)” value: 1% for the first, 0.5% for the second.

First: Cc1ccc(N(c2ccc(C(C)C)cc2)c2ccc3ccc4c(N(c5ccc(C)cc5)c5ccc(C(C)C)cc5)ccc5ccc2c3c54)cc1 [EM193]
Second: CC(C)c1ccc(N(c2ccc(C(C)C)cc2)c2ccc3ccc4c(N(c5ccc(C(C)C)cc5)c5ccc(C(C)C)cc5)ccc5ccc2c3c54)cc1 [EM196]
The “Solubility (%)” value of the first is lower: 0.5% for the first, 1% for the second.

Compared with `CC(C)c1ccc(N(c2ccc(C(C)C)cc2)c2c3ccccc3c(N(c3ccc(C(C)C)cc3)c3ccc(C(C)C)cc3)c3ccccc23)cc1` [EM204], `CC(C)c1ccc(N(c2ccc(C(C)C)cc2)c2cc3c4ccccc4c(N(c4ccc(C(C)C)cc4)c4ccc(C(C)C)cc4)cc3c3ccccc23)cc1` [EM212] is higher in “Solubility (%)” value: 0.5% for the first, 1% for the second.

First: CCC(C)c1ccc(N(c2ccc(-c3ccccc3)cc2)c2ccc(N(c3ccc(-c4ccccc4)cc3)c3ccc(C(C)CC)cc3)c3ccccc23)cc1 (centres unmarked) [EM191]
Second: CCc1ccc(N(c2ccc(C(C)CC)cc2)c2c3ccccc3c(-c3c4ccccc4c(N(c4ccc(CC)cc4)c4ccc(C(C)CC)cc4)c4ccccc34)c3ccccc23)cc1 (centres unmarked) [EM206]
The “Solubility (%)” value of the first is higher: 1% for the first, 0.5% for the second.

`Cc1ccc(N(c2ccc(C(C)C)cc2)c2c3ccccc3c(N(c3ccc(C(C)C)cc3)c3ccc(C(C)C)cc3)c3c2ccc2ccccc23)cc1` [EM211] and `Cc1ccc(N(c2ccc(C(C)C)cc2)c2c3ccccc3c(N(c3ccc(C)cc3)c3ccc(C(C)C)cc3)c3c2ccc2ccccc23)cc1` [EM210] are the same in “Solubility (%)” value: 1% for the first, 1% for the second.

Going from `CC(C)c1ccc(N(c2cccc(C(C)(C)C)c2)c2cc3c4ccccc4c(N(c4ccc(C(C)C)cc4)c4cccc(C(C)(C)C)c4)cc3c3ccccc23)cc1` [EM214] to `Cc1ccc(N(c2ccc(C(C)C)cc2)c2cc3c4ccccc4c(N(c4ccc(C)cc4)c4ccc(C(C)C)cc4)cc3c3ccccc23)cc1` [EM213], the “Solubility (%)” value falls from 1% to 0.5%.

`CC(C)c1ccc(N(c2ccc3ccccc3c2)c2ccc3ccc4c(N(c5ccc(C(C)C)cc5)c5ccc6ccccc6c5)ccc5ccc2c3c54)cc1` [EM194] and `CC(C)c1ccc(N(c2ccc(C(C)(C)C)cc2)c2ccc3ccc4c(N(c5ccc(C(C)C)cc5)c5ccc(C(C)(C)C)cc5)ccc5ccc2c3c54)cc1` [EM197] are the same in “Solubility (%)” value: 1% for the first, 1% for the second.

`CC(C)c1ccc(N(c2ccc(C(C)(C)C)cc2)c2c3ccccc3c(N(c3ccc(C(C)C)cc3)c3ccc(C(C)(C)C)cc3)c3ccccc23)cc1` [EM205] and `Cc1ccc(N(c2ccc(C(C)C)cc2)c2c3ccccc3c(-c3c4ccccc4c(N(c4ccc(C)cc4)c4ccc(C(C)C)cc4)c4cc(C(C)(C)C)ccc34)c3ccc(C(C)(C)C)cc23)cc1` [EM209] are the same in “Solubility (%)” value: 0.5% for the first, 0.5% for the second.

`Cc1cc(C)cc(N(c2ccc(C(C)C)cc2)c2c3ccccc3c(-c3c4ccccc4c(N(c4ccc(C(C)C)cc4)c4cc(C)cc(C)c4)c4ccccc34)c3ccccc23)c1` [EM208] and `Cc1cc(C)cc(N(c2ccc(C(C)C)cc2)c2cc3c4ccccc4c(N(c4ccc(C(C)C)cc4)c4cc(C)cc(C)c4)cc3c3ccccc23)c1` [EM215] are the same in “Solubility (%)” value: 1% for the first, 1% for the second.

For `Cc1cc(C)cc(N(c2ccc(C(C)C)cc2)c2ccc3ccc4c(N(c5ccc(C(C)C)cc5)c5cc(C)cc(C)c5)ccc5ccc2c3c54)c1` [EM195], the “Solubility (%)” value was 0.5%.

same assay, conditions: Table 4

`CCC(C)c1ccc(N(c2ccc(/C=C/c3ccc(/C=C/c4ccc(N(c5ccc(C(C)CC)cc5)c5ccc(C(C)CC)cc5)cc4)cc3)cc2)c2ccc(C(C)CC)cc2)cc1` (centres unmarked) [Compound D1] and `Cc1ccc(N(c2ccc(C(C)C)cc2)c2c3ccccc3c(N(c3ccc(C)cc3)c3ccc(C(C)C)cc3)c3cc(C45CC6CC(CC(C6)C4)C5)ccc23)cc1` [EM176] are the same in “Solubility (%)” value: 0.5% for the first, 0.5% for the second.

`Cc1cccc(N(c2cccc(C)c2)c2c3ccccc3c(N(c3cccc(C)c3)c3cccc(C)c3)c3cc(C4CC5CCC4C5)ccc23)c1` (centres unmarked) [EM175] and `CC(C)c1ccc(N(c2ccccc2)c2c3ccccc3c(N(c3ccccc3)c3ccc(C(C)C)cc3)c3cc(C45CC6CC(CC(C6)C4)C5)ccc23)cc1` [EM177] are the same in “Solubility (%)” value: 0.5% for the first, 0.5% for the second.

In the case of `Cc1ccc(N(c2ccc(C)cc2)c2ccc(/C=C/c3ccc(/C=C/c4ccc(N(c5ccc(C)cc5)c5ccc(C)cc5)cc4)cc3)cc2)cc1` [Compound D4, reference compound], the “Solubility (%)” value is reported as under 0.1%.
With `c1ccc(N(c2ccccc2)c2c3ccccc3c(N(c3ccccc3)c3ccccc3)c3ccccc23)cc1` [Compound D3, reference compound] the “Solubility (%)” value was under 0.1%.

assay: Ink solubility, insoluble matter visually observed; type: physicochemical; conditions: H10: ink of Example 28 with Compound H10 instead of H4
Procedure: (§2) Specifically, samples of a host compound and a dopant compound were blended in a weight ratio of 20:1 in a sample pot, to which a solvent and a viscosity control agent were added.
(§3) Table 5 and Table 6 each show a type of solvent, solid content (wt %), solubility (o: no insoluble matter visually observed, x: insoluble matter visually observed), viscosity and a solution condition after a week.

In the case of `c1ccc(-c2ccccc2-c2ccc3c(-c4ccccc4)c4ccccc4c(-c4ccccc4)c3c2)cc1` [Compound H10], the “insoluble matter in the ink (in words)” value is reported as “no solid matters left undissolved”.

assay: Ink solution condition after a week (pot life); type: physicochemical; conditions: H10: ink of Example 28 with Compound H10 instead of H4
Procedure: as §2, §3

For `c1ccc(-c2ccccc2-c2ccc3c(-c4ccccc4)c4ccccc4c(-c4ccccc4)c3c2)cc1` [Compound H10], the “precipitation within a week / pot life (in words)” value was “precipitation was not observed after a week”.

From patent US20080113101A1, “ORGANIC-ELECTROLUMINESCENCE-MATERIAL-CONTAINING SOLUTION, METHOD FOR FORMING THIN FILM OF ORGANIC ELECTROLUMINESCENCE MATERIAL, THIN FILM OF ORGANIC ELECTROLUMINESCENCE MATERIAL AND ORGANIC ELECTROLUMINESCENCE DEVICE” (Idemitsu Kosan Co., Ltd., priority 2006, published 2008)
